# In ChEMBL document CHEMBL3525998, “Metabolism of saikosaponin a in rats: diverse oxidations on the aglycone moiety in liver and intestine in addition to hydrolysis of glycosidic bonds” (Drug Metab Dispos, 2013):
# Columns and labels:
# Format in all cases: ADME, organism-based
# [1] = Drug excretion in Sprague-Dawley rat bile treated with saikosaponin a at 15 mg/kg, iv by LC-DAD-IT-TOF-MS analysis; design: dose 15 mg/kg, route intravenous; details: in vivo
# Rattus norvegicus = organism: Rattus norvegicus; assay: Drug level in Sprague-Dawley rat assessed as retention time treated with saikosaponin a by LC-DAD-IT-TOF-MS analysis
# [2] = Drug excretion in Sprague-Dawley rat urine treated with saikosaponin a at 50 mg/kg, po administered through gavage by LC-DAD-IT-TOF-MS analysis; design: dose 50 mg/kg, route oral; details: in vivo
# [3] = Drug excretion in Sprague-Dawley rat feces treated with saikosaponin a at 50 mg/kg, po administered through gavage by LC-DAD-IT-TOF-MS analysis; design: dose 50 mg/kg, route oral; details: in vivo
# [4] = Drug excretion in Sprague-Dawley rat feces treated with saikosaponin a at 15 mg/kg, iv by LC-DAD-IT-TOF-MS analysis; design: dose 15 mg/kg, route intravenous; details: in vivo
# [5] = Drug recovery in po dosed rat excreted feces measured over 0 to 24 hrs after drug administration by HPLC analysis relative to starting drug dose; details: faeces, read-out: Drug recovery
# [6] = Drug excretion in Sprague-Dawley rat urine treated with saikosaponin a at 15 mg/kg, iv by LC-DAD-IT-TOF-MS analysis; design: dose 15 mg/kg, route intravenous; details: in vivo
# Plasma [7] = assay: Drug level in Sprague-Dawley rat plasma treated with saikosaponin a at 15 mg/kg, iv by LC-DAD-IT-TOF-MS analysis; design: dose 15 mg/kg, route intravenous; details: in vivo
# [8] = Drug excretion in Sprague-Dawley rat bile treated with saikosaponin a at 50 mg/kg, po administered through gavage by LC-DAD-IT-TOF-MS analysis; design: dose 50 mg/kg, route oral; details: in vivo
# Plasma [9] = assay: Drug level in Sprague-Dawley rat plasma treated with saikosaponin a at 50 mg/kg, po administered through gavage by LC-DAD-IT-TOF-MS analysis; design: dose 50 mg/kg, route oral; details: in vivo
Compound,Drug excretion [1],Retention_time (Rattus norvegicus) [min],Drug excretion [2],Drug excretion [3],Drug excretion [4],dose excreted [5] [%],Drug excretion [6],Drug metabolism (Plasma [7]),Drug excretion [8],Drug metabolism (Plasma [9])
C[C@H]1O[C@@H](O[C@H]2CC[C@@]3(C)[C@@H](CC[C@]4(C)[C@@H]3CC=C3[C@@H]5CC(C)(C)CC[C@]5(CO)[C@@H](O)C[C@]34C)[C@]2(C)CO)[C@H](O)[C@@H](O[C@@H]2O[C@H](CO)[C@@H](O)[C@H](O)[C@H]2O)[C@H]1O,metabolite_detected,22.9,–,–,–,–,–,–,–,–
CC1(C)CC[C@]23CO[C@@]4(C=C[C@@H]5[C@@]6(C)C=C[C@H](O)[C@@](C)(CO)[C@@H]6CC[C@@]5(C)[C@]4(C)C[C@@H]2O)[C@@H]3C1,–,53.7,metabolite_detected,metabolite_detected,–,–,–,–,–,–
CC1(C)CC[C@]23CO[C@@]4(C=C[C@@H]5[C@@]6(C)CCC(=O)[C@@](C)(CO)[C@@H]6CC[C@@]5(C)[C@]4(C)C[C@@H]2O)[C@@H]3C1,–,52.3,metabolite_detected,metabolite_detected,–,–,–,–,–,–
CC1(C)CC[C@]23CO[C@@]4(C=C[C@@H]5[C@@]6(C)CC[C@H](O)[C@@](C)(CO)[C@@H]6CC[C@@]5(C)[C@]4(C)C[C@@H]2O)[C@@H]3C1,–,48.3,metabolite_detected,metabolite_detected,metabolite_detected,> 50,–,–,–,–
C[C@H]1O[C@@H](O[C@H]2CC[C@@]3(C)[C@@H](CC[C@]4(C)[C@@H]3C=C[C@]35OC[C@@]6(CCC(C)(C)C[C@H]63)[C@@H](O)C[C@]54C)[C@]2(C)CO)[C@H](O)[C@@H](O)[C@H]1O,metabolite_detected,45.5,metabolite_detected,metabolite_detected,metabolite_detected,> 50,metabolite_detected,metabolite_detected,metabolite_detected,metabolite_detected
CC1(C)CC[C@]23CO[C@@]4(C=C[C@@H]5[C@@]6(C)CC[C@H](O)[C@@](C)(CO)[C@@H]6CC[C@@]5(C)[C@]4(C(=O)O)C[C@@H]2O)[C@@H]3C1,–,18.4,metabolite_detected,metabolite_detected,metabolite_detected,–,–,–,–,–
